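GI50 marks 50% less growth. TGI is the concentration that stops growth completely.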
Assays:
Assay in all cases: NCI anticancer screen, dose series, 384-well format
786-0 renal = tested on: 786-0 renal
A498 renal = tested on: A498 renal
A549 NSCLC = tested on: A549 NSCLC
ACHN renal = tested on: ACHN renal
BT-549 breast = tested on: BT-549 breast
CAKI-1 renal = tested on: CAKI-1 renal
CCRF-CEM leukemia = tested on: CCRF-CEM leukemia
COLO 205 colon = tested on: COLO 205 colon
DU-145 prostate = tested on: DU-145 prostate
EKVX NSCLC = tested on: EKVX NSCLC
HCC-2998 colon = tested on: HCC-2998 colon
HCT-116 colon = tested on: HCT-116 colon
HCT-15 colon = tested on: HCT-15 colon
HL-60(TB) leukemia = tested on: HL-60(TB) leukemia
HOP-62 NSCLC = tested on: HOP-62 NSCLC
HOP-92 NSCLC = tested on: HOP-92 NSCLC
HS 578T breast = tested on: HS 578T breast
HT29 colon = tested on: HT29 colon
IGROV1 ovarian = tested on: IGROV1 ovarian
K-562 leukemia = tested on: K-562 leukemia
KM12 colon = tested on: KM12 colon
LOX IMVI melanoma = tested on: LOX IMVI melanoma
M14 melanoma = tested on: M14 melanoma
MALME-3M melanoma = tested on: MALME-3M melanoma
MCF7 breast = tested on: MCF7 breast
MDA-MB-435 melanoma = tested on: MDA-MB-435 melanoma
MDA-MB-468 breast = tested on: MDA-MB-468 breast
MOLT-4 leukemia = tested on: MOLT-4 leukemia
NCI-H226 lung = tested on: NCI-H226 lung
NCI-H23 lung = tested on: NCI-H23 lung
NCI-H322M lung = tested on: NCI-H322M lung
NCI-H460 NSCLC = tested on: NCI-H460 NSCLC
NCI-H522 lung = tested on: NCI-H522 lung
NCI/ADR-RES ovarian = tested on: NCI/ADR-RES ovarian
OVCAR-3 ovarian = tested on: OVCAR-3 ovarian
OVCAR-4 ovarian = tested on: OVCAR-4 ovarian
OVCAR-8 ovarian = tested on: OVCAR-8 ovarian
PC-3 prostate = tested on: PC-3 prostate
RPMI-8226 leukemia = tested on: RPMI-8226 leukemia
RXF 393 renal = tested on: RXF 393 renal
SF-268 CNS = tested on: SF-268 CNS
SF-295 CNS = tested on: SF-295 CNS
SF-539 CNS = tested on: SF-539 CNS
SK-MEL-2 melanoma = tested on: SK-MEL-2 melanoma
SK-MEL-28 melanoma = tested on: SK-MEL-28 melanoma
SK-MEL-5 melanoma = tested on: SK-MEL-5 melanoma
SK-OV-3 ovarian = tested on: SK-OV-3 ovarian
SN12C renal = tested on: SN12C renal
SNB-19 CNS = tested on: SNB-19 CNS
SNB-75 CNS = tested on: SNB-75 CNS
SW-620 colon = tested on: SW-620 colon
TK-10 renal = tested on: TK-10 renal
U251 glioblastoma = tested on: U251 glioblastoma
UACC-257 melanoma = tested on: UACC-257 melanoma
UACC-62 melanoma = tested on: UACC-62 melanoma

## O=C(Nc1cccc(Br)c1)Oc1ccc(Cl)c2cccnc12
786-0 renal
  GI50: 14.3 µM
  TGI: 27.5 µM
A498 renal
  GI50: 4.23 µM
  TGI: 13.1 µM
A549 NSCLC
  GI50: 11 µM
  TGI: 23.8 µM
ACHN renal
  GI50: 3.98 µM
  TGI: 15 µM
BT-549 breast
  GI50: 3.75 µM
  TGI: 15.4 µM
CAKI-1 renal
  GI50: 2.61 µM
  TGI: 6.82 µM
CCRF-CEM leukemia
  GI50: 1.6 µM
  TGI: 3.01 µM
COLO 205 colon
  GI50: 4.37 µM
  TGI: 12.1 µM
DU-145 prostate
  GI50: 4.76 µM
  TGI: 19.7 µM
EKVX NSCLC
  GI50: 2.6 µM
  TGI: 5.8 µM
HCC-2998 colon
  GI50: 15.4 µM
  TGI: 28.9 µM
HCT-116 colon
  GI50: 2.02 µM
  TGI: 3.77 µM
HCT-15 colon
  GI50: 3.74 µM
  TGI: 10.6 µM
HL-60(TB) leukemia
  GI50: 0.42 µM
  TGI: 1.42 µM
HOP-62 NSCLC
  GI50: 3.43 µM
  TGI: 6.55 µM
HOP-92 NSCLC
  GI50: 3.59 µM
  TGI: 9.38 µM
HS 578T breast
  GI50: 5.86 µM
  TGI: 18.9 µM
HT29 colon
  GI50: 14.4 µM
  TGI: 27.6 µM
IGROV1 ovarian
  GI50: 1.49 µM
  TGI: 3.35 µM
K-562 leukemia
  GI50: 13.5 µM
  TGI: 27 µM
KM12 colon
  GI50: 7.59 µM
  TGI: 19.7 µM
LOX IMVI melanoma
  GI50: 3.36 µM
  TGI: 12.3 µM
M14 melanoma
  GI50: 2.68 µM
  TGI: 6.58 µM
MALME-3M melanoma
  GI50: 2.79 µM
  TGI: 7.77 µM
MCF7 breast
  GI50: 2.04 µM
  TGI: 4.28 µM
MDA-MB-435 melanoma
  GI50: 5.71 µM
  TGI: 19.1 µM
MDA-MB-468 breast
  GI50: 2.54 µM
  TGI: 4.16 µM
MOLT-4 leukemia
  GI50: 1.73 µM
  TGI: 3.16 µM
NCI-H226 lung
  GI50: 1.62 µM
  TGI: 3.12 µM
NCI-H23 lung
  GI50: 1.98 µM
  TGI: 3.91 µM
NCI-H322M lung
  GI50: 15.3 µM
  TGI: 31.4 µM
NCI-H460 NSCLC
  GI50: 3.22 µM
  TGI: 9.1 µM
NCI-H522 lung
  GI50: 2.01 µM
  TGI: 4.04 µM
NCI/ADR-RES ovarian
  GI50: 2.57 µM
  TGI: 4.9 µM
OVCAR-3 ovarian
  GI50: 1.91 µM
  TGI: 3.64 µM
OVCAR-4 ovarian
  GI50: 4.88 µM
  TGI: 15.9 µM
OVCAR-8 ovarian
  GI50: 2.29 µM
  TGI: 4.86 µM
PC-3 prostate
  GI50: 2.37 µM
  TGI: 5.64 µM
RPMI-8226 leukemia
  GI50: 1.65 µM
  TGI: 3.08 µM
RXF 393 renal
  GI50: 2.63 µM
  TGI: 9.07 µM
SF-268 CNS
  GI50: 3.33 µM
  TGI: 12.1 µM
SF-295 CNS
  GI50: 4.71 µM
  TGI: 16.3 µM
SF-539 CNS
  GI50: 3.26 µM
  TGI: 10.4 µM
SK-MEL-2 melanoma
  GI50: 2.39 µM
  TGI: 4.87 µM
SK-MEL-28 melanoma
  GI50: 3.5 µM
  TGI: 9.22 µM
SK-MEL-5 melanoma
  GI50: 2.01 µM
  TGI: 4.53 µM
SK-OV-3 ovarian
  GI50: 15.4 µM
  TGI: 28.9 µM
SN12C renal
  GI50: 3.56 µM
  TGI: 14.9 µM
SNB-19 CNS
  GI50: 4.2 µM
  TGI: 15.4 µM
SNB-75 CNS
  GI50: 2.96 µM
  TGI: 8.36 µM
SW-620 colon
  GI50: 4.45 µM
  TGI: 13.8 µM
TK-10 renal
  GI50: 18.5 µM
  TGI: 47.4 µM
U251 glioblastoma
  GI50: 3.9 µM
  TGI: 11.2 µM
UACC-257 melanoma
  GI50: 2.6 µM
  TGI: 4.37 µM
UACC-62 melanoma
  GI50: 3.73 µM
  TGI: 10.8 µM

— PubChem BioAssay (NCI)
